# Measurements taken from patent US8138167B2, “Methods for treating lung cancers” (Oncotherapy Science, Inc., priority 2006, dated 2012).
# Where two headings read alike, the source gives them in different places.
# Assays:
# [1] = tested on: advanced non-small-cell lung cancer; conditions: Japanese patients with advanced NSCLC treated since approval; cited from earlier work
# lung cancer = conditions: cited from earlier work
# PC-9 cells = conditions: gefitinib-sensitive, amphiregulin-nonexpressing NSCLC line PC-9; upon autocrine secretion of amphiregulin; cited from earlier work
# [2] = tested on: progressive non-small-cell lung cancer; assay: gefitinib therapy (250 mg/day) of 50 patients with progressive non-small-cell lung cancer, overall evaluation of tumor response
# [3] = 50 progressive NSCLC patients, gefitinib 250 mg/day, evaluation after four months
# [4] = of 50 patients after gefitinib therapy
smiles,measurement,setting,value
"COc1cc2ncnc(Nc3ccc(F)c(Cl)c3)c2cc1OCCCN1CCOCC1 [gefitinib, N-(3-chloro-4-fluorophenyl)-7-methoxy-6-(3-morpholinopropoxy)quinazolin-4-amine]",patients showing no improvement in symptoms,[1],60%
same,median survival time,"lung cancer; adenocarcinoma patients, gefitinib arm (placebo […])",6.3 months
same,median survival time,"lung cancer; all parent populations, gefitinib arm (placebo 5.1)",5.6 months
same,antitumor activity of gefitinib on PC-9 cells,PC-9 cells,dramatically reduced
same,disease control rate (CR+PR+SD/CR+PR+SD+PD),[2]; [3],40.0%
same,tumor response rate (CR+PR/CR+PR+SD+PD),[2]; [3],16.0%
same,patients classified as CR,[2]; [4],none
same,patients classified as PD,[2]; [4],30 patients
same,patients classified as PR,[2]; [4],eight
same,patients classified as SD,[2]; [4],12 patients
